Among the data in PubChem BioAssay (NCI) are GI50 and TGI values, retold here.

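Results reflect a 48-hour exposure of cells in 96-well plates to compound at five concentrations. GI50 = concentration required for 50% inhibition of growth. At the TGI there is no net growth.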

Among the test systems are OVCAR-5 ovarian; U251 CNS; SNB-19 CNS; CAKI-1 renal; HS 578T breast; COLO 205 colon; NCI/ADR-RES ovarian; ACHN renal; SF-539 CNS; UACC-62 melanoma.
What all share (experiment): inhibition of tumour cell growth, NCI panel, 48 h

`COc1cc(C2C(C#N)=C(N)Oc3cc(O)ccc32)cc(OC)c1OC` (stereo not drawn): the GI50 in the experiment on OVCAR-5 ovarian is 2.36 µM; in the experiment with U251 CNS it was 0.439 µM; in the experiment with CAKI-1 renal it was 0.97 µM; with HS 578T breast, 0.4 µM; in the experiment on COLO 205 colon, 0.583 µM; in the experiment on NCI/ADR-RES ovarian, 1.72 µM. The GI50 with ACHN renal was 0.882 µM; in the experiment with SF-539 CNS, 0.333 µM; in the experiment with UACC-62 melanoma, 0.407 µM. Also, the TGI in the experiment with OVCAR-5 ovarian is greater than 100 µM; in the experiment on U251 CNS, greater than 100 µM; in the experiment with SNB-19 CNS, greater than 100 µM; in the experiment with CAKI-1 renal it was greater than 100 µM; in the experiment with HS 578T breast, greater than 100 µM; in the experiment on COLO 205 colon it was 4.1 µM. The TGI in the experiment with NCI/ADR-RES ovarian, in the experiment on ACHN renal and with UACC-62 melanoma was greater than 100 µM throughout.
For the compound `C=C1N(C)c2ccc(Cl)cc2C1(C)C`, the GI50 in the experiment with OVCAR-5 ovarian is 31 µM; in the experiment on U251 CNS, 3.68 µM; in the experiment on SNB-19 CNS, 8.75 µM; in the experiment on CAKI-1 renal it was 19.2 µM; with HS 578T breast, 6.34 µM; in the experiment on COLO 205 colon, 2.1 µM. In addition, the GI50 was 34.8 µM with NCI/ADR-RES ovarian, 24.6 µM in the experiment on ACHN renal, 19.6 µM with SF-539 CNS and 11.7 µM with UACC-62 melanoma. The TGI was greater than 100 µM in the experiment on OVCAR-5 ovarian; 57.2 µM in the experiment with U251 CNS; greater than 100 µM in the experiment on SNB-19 CNS; 68.5 µM in the experiment with CAKI-1 renal; greater than 100 µM in the experiment with HS 578T breast; 4.36 µM in the experiment with COLO 205 colon. The TGI in the experiment with NCI/ADR-RES ovarian is greater than 100 µM; with ACHN renal, greater than 100 µM; in the experiment on SF-539 CNS, 62.5 µM; in the experiment with UACC-62 melanoma, 29.5 µM.
Take `COc1cc(OC)cc(-c2cncn2-c2ccc(-c3nc4cc(OC)c(OC)c(OC)c4s3)cc2)c1`: the GI50 with OVCAR-5 ovarian is greater than 100 µM; in the experiment with U251 CNS it was 5.44 µM; in the experiment on SNB-19 CNS, 19.7 µM; with CAKI-1 renal it was 3.79 µM; with HS 578T breast it was 20.9 µM; with COLO 205 colon, 3.85 µM. Moreover, the GI50 in the experiment with NCI/ADR-RES ovarian is 11 µM; in the experiment on ACHN renal, 11.5 µM; in the experiment with SF-539 CNS, 22 µM; with UACC-62 melanoma, 13.8 µM. Further, the TGI with OVCAR-5 ovarian, with U251 CNS, in the experiment with SNB-19 CNS, in the experiment on CAKI-1 renal, in the experiment with HS 578T breast and in the experiment with COLO 205 colon was greater than 100 µM each time. Besides, the TGI in the experiment on NCI/ADR-RES ovarian, in the experiment with ACHN renal, with SF-539 CNS and in the experiment with UACC-62 melanoma was greater than 100 µM in each case.
Regarding `O=S(=O)(NCCCNc1cc(-c2cn(-c3ccccc3)nc2-c2cccc(O)c2)ccn1)c1ccc(Cl)cc1`, the GI50 in the experiment with OVCAR-5 ovarian was 2.04 µM; with U251 CNS it was 1.35 µM; in the experiment on SNB-19 CNS, 2.68 µM; in the experiment with CAKI-1 renal, 2.3 µM; in the experiment on HS 578T breast, 1.16 µM; with COLO 205 colon, 1.57 µM. For the same compound, the GI50 in the experiment on NCI/ADR-RES ovarian was 1.94 µM; in the experiment on ACHN renal it was 2.74 µM; in the experiment with SF-539 CNS it was 1.77 µM; in the experiment with UACC-62 melanoma, 1.67 µM. The TGI with OVCAR-5 ovarian turned out to be 5.64 µM; in the experiment with U251 CNS, 3.47 µM; in the experiment on SNB-19 CNS it was 8.37 µM; in the experiment on CAKI-1 renal, 12 µM; in the experiment with HS 578T breast, 4.77 µM; in the experiment on COLO 205 colon it was 3.16 µM. The TGI with NCI/ADR-RES ovarian came to 5.3 µM; in the experiment on ACHN renal, 13.6 µM; with SF-539 CNS, 3.79 µM; in the experiment with UACC-62 melanoma, 3.67 µM.
Consider `Nc1c(C(=O)Nc2ccccc2)sc2nc3c(cc12)CCCC3`, for which the GI50 was 18.6 µM in the experiment on OVCAR-5 ovarian; 0.473 µM with U251 CNS; 18.1 µM in the experiment with SNB-19 CNS; 1.13 µM in the experiment with CAKI-1 renal; 2.73 µM in the experiment on HS 578T breast; 1.24 µM in the experiment with COLO 205 colon. Moreover, the GI50 is 0.683 µM in the experiment with NCI/ADR-RES ovarian, 1.61 µM with ACHN renal, 0.452 µM in the experiment with SF-539 CNS and 0.493 µM in the experiment with UACC-62 melanoma. Besides, the TGI was greater than 100 µM in the experiment with OVCAR-5 ovarian; 34 µM in the experiment with U251 CNS; greater than 100 µM in the experiment with SNB-19 CNS; greater than 100 µM with CAKI-1 renal; greater than 100 µM in the experiment with HS 578T breast; 13.8 µM in the experiment with COLO 205 colon. Moreover, the TGI in the experiment on NCI/ADR-RES ovarian was greater than 100 µM; in the experiment on ACHN renal it was greater than 100 µM; in the experiment on SF-539 CNS, 3.9 µM; with UACC-62 melanoma it was greater than 100 µM.
As for `CC(C)Oc1ccc(C(=O)N[C@H](CNC(=O)CN(C)C)Cc2ccc(-c3cn4cccc([C@H](C)O)c4n3)cc2)cc1Cl`, the GI50 is 0.0771 µM in the experiment on OVCAR-5 ovarian; 0.0534 µM with U251 CNS; 0.0625 µM with SNB-19 CNS; 0.538 µM in the experiment on CAKI-1 renal; 1.38 µM in the experiment with HS 578T breast; 0.0396 µM with COLO 205 colon. Also, the GI50 with NCI/ADR-RES ovarian is 2.64 µM; in the experiment on ACHN renal, 6.6 µM; in the experiment on SF-539 CNS it was 0.0323 µM; with UACC-62 melanoma, 0.0706 µM. Further, the TGI in the experiment with OVCAR-5 ovarian was 22.2 µM; in the experiment on U251 CNS, 19.2 µM; in the experiment with SNB-19 CNS it was 23.9 µM; with CAKI-1 renal, 17.9 µM; in the experiment on HS 578T breast, 33.4 µM; with COLO 205 colon, 13.2 µM. The TGI in the experiment with NCI/ADR-RES ovarian amounted to 19.8 µM; with ACHN renal it was 21.8 µM; in the experiment on SF-539 CNS, 1.19 µM; in the experiment on UACC-62 melanoma it was 24.3 µM.
`COc1ccc(CC2C3=C(CCCC3)CCN2C)cc1` (stereo not drawn): the TGI in the experiment on OVCAR-5 ovarian, in the experiment on U251 CNS, in the experiment on SNB-19 CNS, in the experiment on CAKI-1 renal, with HS 578T breast and in the experiment with COLO 205 colon was greater than 100 µM throughout. Also, the TGI in the experiment with NCI/ADR-RES ovarian, in the experiment on ACHN renal, in the experiment on SF-539 CNS and in the experiment on UACC-62 melanoma was greater than 100 µM in each case.
In the case of `Cc1ccc(S(=O)(=O)n2cc(-c3nnnn3-c3ccc(Cl)cc3)c(=O)c3ccccc32)cc1`, the GI50 was greater than 100 µM with OVCAR-5 ovarian; 88.6 µM in the experiment with U251 CNS; greater than 100 µM in the experiment with SNB-19 CNS; greater than 100 µM in the experiment on CAKI-1 renal; greater than 100 µM in the experiment with HS 578T breast; 93 µM in the experiment with COLO 205 colon. Further, the GI50 is greater than 100 µM in the experiment on NCI/ADR-RES ovarian, greater than 100 µM in the experiment on ACHN renal, greater than 100 µM in the experiment with SF-539 CNS and 54.8 µM with UACC-62 melanoma. The TGI in the experiment on OVCAR-5 ovarian, in the experiment with U251 CNS, in the experiment on SNB-19 CNS, in the experiment with CAKI-1 renal, in the experiment on HS 578T breast and with COLO 205 colon was greater than 100 µM in each case. Moreover, the TGI in the experiment with NCI/ADR-RES ovarian, with ACHN renal, in the experiment on SF-539 CNS and in the experiment on UACC-62 melanoma was greater than 100 µM each time.
